Measurements published in patent publication US5585234A, “Treatment of infertile sperm in vitro with thymosin α1 to enhance penetration of mammalian ova” (The George Washington University Medical Center, priority 1994, dated 1996).
Ends that are not written are not given here.

What was measured:
Assay type in all cases: cell-based
human sperm [1] = assay: Assessment of acrosin distribution (BAPNA acrosin activity in cells and supernatant); conditions: for Effect on acrosin distribution vs PBS-BSA treated sperm: peptide 0.5 micrograms/100 microliters, with or without ionophore; for Acrosin activity, cells (Mean ± SD) / Acrosin activity, supernatant (Mean ± SD): thymosins 0.5 μg/100 μl
Method: After incubation with the thymosin peptides or the anti-thymosin antibodies or control antibodies or PBS-BSA and with or without treating with calcium ionophore A23187 for one hour as described above, the sperm cells were centrifuged and the acrosin activity determined in the supernatant and cells by the method of Kennedy et al., J. Androl., 10:21-27 (1989). Ninety microliters of the supernatant or the pelleted sperm cells suspended in 90 microliters of PBS were mixed with one milliliter of the reaction mixture. The reaction mixture comprises one milligram per milliliter of N-benzoyl-dl-arginine-P-nitraniline (BAPNA) hydrochloride in 0.055M HEPES buffer, 0.055M NaCl, 10% v/v (dimethylsulfoxide), 0.1% v/v TRITON X-100 (t-Octylphenoxypolyethoxyethanol). The solution then was incubated for three hours at room temperature. The reaction was stopped by the addition of 100 microliters of 0.5M benzamidine and the absorbance measured at 405 nanometers using a Beckman spectrophotometer. Acrosin activity was expressed as μIU/10^6 spermatozoa. The daily variability of the assay was normalized using a cryopreserved partially-purified human acrosin extract. The preparation of such extracts is taught by Naz et al., J. Cell Sci., 102:487-494 (1992).

human sperm [2] = assay: Human sperm penetration assay of zona-free hamster oocytes (SPA); conditions: for Ova penetrated, % of control (mean ± SD): 5-6 hours, sperm of fertile men
Method: Human sperm penetration assay of zona-free-hamster oocytes (SPA) was performed as described in Naz et al., J. Cell Sci., 102:487-494 (1992). Superovulation was induced in adult female golden hamsters by intraperitoneal injections of 30 IU eCG (pregnant mare serum gonadotropin)(Sigma Chemical Co., St. Louis, Mo.) on day 1 of the cycle. After 55-72 hours, 20 IU hCG (human chorionic gonadotropin) (Sigma) were administered intraperitoneally. 15-17 hours later the animals were sacrificed and the mature unfertilized ova were collected from the oviducts. The ova were separated from the surrounding cumulus cells by incubation with 0.2% hyaluronidase in Biggers, Witten and Wittingham (BWW) medium and from the zonae pellucida by treatment with 0.1% pancreatic trypsin in BWW. The zona-free ova were twice washed in BWW and placed in the center of a tissue culture dish.
Semen from a fertile person was liquified for 15-30 minutes at 37° C. and the swim-up sperm population was collected. Collection techniques are described in Naz et al., J. Cell Sci., 99:157-165 (1991). The sperm cells from the swim-up were washed with BWW supplemented with 1% BSA (Sigma Chemical Co.) adjusted to 5-10×10^6 motile sperm per milliliter and then allowed to incubate for 5-6 hours at 37° C. ([…]) or polyclonal antisera elicited in response to those immunogens (10-20 microliters of antiserum/100 microliters of sperm suspension) or the same amount of control antibodies (normal rabbit serum, anti-KLH antibodies or anti-HGP-30 antibodies) or the equivalent volume of PBS containing 0.5% BSA (PBS/BSA). After incubation the sperm were washed to remove the unreacted thymosin or anti-thymosin antibody and co-incubated with the zona-denuded hamster oocytes (30-50 eggs/treatment in each assay) for three to four hours. The oocytes were removed, thoroughly washed, fixed with 3% […] and stained with acetocarmine solution. Sperm penetration was determined by the presence of a swollen spermhead with a discernable tail in the cytoplasm of the ovum. Motility of sperm before and after incubation with ova was recorded. The assays were repeated at least three to eight times using different fertile donors and each sample tested with at least 82-480 oocytes.
The percentage of ova penetrated was calculated according to the following formula; [formula]

human sperm [3] = assay: Sperm motion analysis (computerized semen analyzer); conditions: for Effect on motility characteristics (velocity, ALH, beat frequency) / Effect on the percentage of motile sperm cells: peptide 0.5 micrograms per hundred microliters; for ALH (amplitude of lateral head displacement) (Mean ± S.D.) / Beat Frequency (Mean ± S.D.) / Linearity (Mean ± S.D.) / Percent Motility / Velocity (Mean ± S.D.): thymosins 0.5 μg/100 μl, 5 to 6 hours
Method: After incubation with thymosin peptides or their antibodies for 5 to 6 hours as described above, an aliquot (7 microliters) of the sperm suspension was placed into a Makler chamber (Sefi Medical Instruments, Israel) and the sperm motion characteristics measured using a computerized semen analyzer (Cell Soft Cryo Resources, N.Y.). The parameter settings were 30 frames analyzed at an image frequency of 30 Hz, 3 frames minimum sampling for motility, 15 frames minimum sampling for both velocity and amplitude of the lateral head movement ("ALH") measurements, 10 micrometers per second threshold velocity, minimum linearity of 2.5 for ALH measurements and a cell size range of 4-40 pixels with a magnification calibration of 0.688 micrometers per pixel.

human sperm [4] = assay: Assessment of acrosomal status (triple stain) of human sperm; conditions: for Effect on capacitation and acrosome reaction of human sperm cells: 0.5 micrograms/microliter, 5-6 hours, with or without ionophore; for Acrosome reacted sperm (%) (Mean ± SD): thymosins 0.5 μg/100 μl
Method: Motile sperm were collected from fertile men by the swim up procedure as set forth in Naz et al., referenced above. Good quality sperm samples, i.e., (5×10^6 motile sperm per milliliter), greater than 75% motility, +3 to +4 forward progression on a scale of 0 to +5 were incubated with Tα1 or Tβ4 or anti-Tα1 antibodies or anti-Tβ4 antibodies. The controls were treated with the same amount of normal rabbit serum, anti-KLH antibodies, anti-HGP 30 antibodies or PBS-BSA as previously described. After incubation, the spermatozoa were centrifuged, washed in PBS and divided into two aliquots. One aliquot was induced to acrosome react with calcium ionophore (Calcium ionophore A23187 (Sigma)) and incubated with sperm suspension for one hour. The other aliquot was allowed to spontaneously acrosome react without treating with calcium ionophore. Calcium ionophore treatment was carried out to induce acrosome reaction of the capacitated sperm. The acrosomal status was assessed using the triple stain procedure described by Jager et al., Arch. Androl., 12:53-58 (1984). The sperm were washed twice in PBS and then incubated at 37° C. for fifteen minutes with 2% Trypan blue (Sigma 1:1 v/v) in PBS. After incubation, the sperm were washed twice, fixed in three percent glutaraldehyde, 0.1M cacodylate buffer for sixty minutes and then twice washed again in PBS. A drop of this suspension was placed on a glass slide and allowed to air dry overnight. The dried slide was stained with 0.8% Bismark Brown (Sigma) in deionized water (pH 1.8 with 2N HCl), rinsed in deionized water and stained for 45 minutes at room temperature in 0.8% Rose Bengal (Sigma) in 0.1M cacodylate buffer at pH 6.0. The slides were again washed in deionized water, dehydrated in an alcohol series, cleared in xylene and mounted with permount and a coverslip. A total of 200-500 sperm per sample were evaluated and recorded as either alive or dead. The alive sperm were further evaluated as acrosome-intact or acrosome-non-intact (reacted) sperm. The experiments were repeated 3-5 times using sperm of at least three different fertile donors.

[5] = peptide 0.1 μg/100 μl sperm suspension
[6] = peptide 0.5 μg/100 μl sperm suspension
[7] = peptide 2.0 μg/100 μl sperm suspension
[8] = peptide 10.0 μg/100 μl sperm suspension

Substance	Effect on acrosin distribution vs PBS-BSA treated sperm (human sperm [1])	Acrosin activity, cells (Mean ± SD) (human sperm [1]; with ionophore treatment)	Acrosin activity, supernatant (Mean ± SD) (human sperm [1]; with ionophore treatment)	Acrosin activity, cells (Mean ± SD) (human sperm [1]; without ionophore treatment)	Acrosin activity, supernatant (Mean ± SD) (human sperm [1]; without ionophore treatment)	Ova penetrated, % of control (mean ± SD) (human sperm [2]; [5])	Ova penetrated, % of control (mean ± SD) (human sperm [2]; [6])	Ova penetrated, % of control (mean ± SD) (human sperm [2]; [7])	Ova penetrated, % of control (mean ± SD) (human sperm [2]; [8])	Effect on motility characteristics (velocity, ALH, beat frequency) (human sperm [3])	Effect on the percentage of motile sperm cells (human sperm [3])	ALH (amplitude of lateral head displacement) (Mean ± S.D.) (human sperm [3])	Beat Frequency (Mean ± S.D.) (human sperm [3])	Linearity (Mean ± S.D.) (human sperm [3])	Percent Motility (human sperm [3])	Velocity (Mean ± S.D.) (human sperm [3])	Effect on capacitation and acrosome reaction of human sperm cells (human sperm [4])	Acrosome reacted sperm (%) (Mean ± SD) (human sperm [4]; with ionophore treatment)	Acrosome reacted sperm (%) (Mean ± SD) (human sperm [4]; without ionophore treatment)	other results
thymosin-α1 (SDAAVDTSSEITTKDLKEKKEVVEEAEN; not fully specified; ends and bridges not checked; UniProt P06454 2-29, looked up) [Tα1, Thymus factor peptide; available from Alpha 1 Biomedicals]	significantly higher quantity of acrosin concentration released in the supernatant and a lower quantity of acrosin concentration in the sperm cells	30.6 ± 7.2 μIU/10^6 spermatozoa	68.2 ± 16.6 μIU/10^6 spermatozoa	64.5 ± 6.4 μIU/10^6 spermatozoa	27.5 ± 13.4 μIU/10^6 spermatozoa	251.0 ± 36.3%	204.0 ± 13.9%	100.5 ± 0.7%	102.2 ± 18.9%	significantly affected the velocity, ALH and beat frequency	No effect	4.0 ± 0.3	13.7 ± 0.6	3.9 ± 0.6	80.3 ± 6.2%	61.1 ± 3.0	significantly enhanced capacitation and acrosome reaction	69.2 ± 3.6%	18.5 ± 3.5%	Fold increase of percentage of ova penetrated compared to PBS-BSA-treated control sperm (human sperm [2]; 0.05 to 0.5 μg Tα1/100 μl sperm suspension, P<0.001): up to 2.6 fold; Ova penetrated, % of control (mean ± SD) (human sperm [2]; peptide 0.01 μg/100 μl sperm suspension): 120.3 ± 11.6%; Ova penetrated, % of control (mean ± SD) (human sperm [2]; peptide 0.05 μg/100 μl sperm suspension): 268.2 ± 26.4%
thymosin-β4 [Tβ4]	no significant effect	38.5 ± 7.1 μIU/10^6 spermatozoa	52.8 ± 16.2 μIU/10^6 spermatozoa	76.5 ± 9.1 μIU/10^6 spermatozoa	21.0 ± 14.4 μIU/10^6 spermatozoa	102.7 ± 6.5%	99.7 ± 10.1%	61.8 ± 27.9%	31.5 ± 12.2%	Neither Tβ4 peptide nor the control antibodies affected any motility characteristics	No effect	3.7 ± 0.4	13.1 ± 0.3	4.0 ± 0.6	76.0 ± 4.3%	58.5 ± 2.6	did not exhibit a significant effect	61.5 ± 4.8%	14.5 ± 2.1%	–
